Results from patent US20150225369A1, “DDR2 INHIBITORS FOR THE TREATMENT OF OSTEOARTHRITIS” (Merck Patent GmbH, priority 2012, published 2015).

Tests used:
[1] = molecular target: T1, His-tagged human recombinant DDR-2 kinase domain (His-TEV-DDR2 467-855 aa) (Homo sapiens, UniProt Q16832); test: Autophosphorylation assay for biochemical activity testing of DDR2 (HTRF); settings: biochemical DDR2 autophosphorylation
T1 construct: His-TEV-DDR2 467-855 aa
T1 sequence (Q16832 467-855): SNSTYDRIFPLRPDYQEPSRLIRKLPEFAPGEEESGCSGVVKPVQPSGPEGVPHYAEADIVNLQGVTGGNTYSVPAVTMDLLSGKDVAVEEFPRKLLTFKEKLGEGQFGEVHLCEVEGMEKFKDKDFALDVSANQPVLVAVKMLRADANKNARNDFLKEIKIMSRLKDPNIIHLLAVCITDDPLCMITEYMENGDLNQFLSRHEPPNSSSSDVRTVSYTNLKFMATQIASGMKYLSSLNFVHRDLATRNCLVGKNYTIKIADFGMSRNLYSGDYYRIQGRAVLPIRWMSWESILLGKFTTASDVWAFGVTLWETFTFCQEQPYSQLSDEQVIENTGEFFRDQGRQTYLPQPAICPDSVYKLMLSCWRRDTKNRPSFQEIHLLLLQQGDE
In short: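 Phospho-tyrosine was detected by HTRF between XL665 anti-6His and cryptate anti-phosphotyrosine PT66 antibodies, using the emission ratio. Inhibition was referenced to the inhibitor-free reaction.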

[2] = molecular target: T2, HEK293 transfected with human DDR2 (Homo sapiens, UniProt Q16832); test: Phospho-DDR2 cellular assay (collagen II induced DDR2 phosphorylation, ELISA); assay type: cell-based; settings: cellular phospho-DDR2; read-out: IC50 [p-DDR2]
T2 construct: expressed in transfected cells; host or cells: HEK293 (PLT460F_(DDR2)-P7-1)
T2 sequence (Q16832 22-855): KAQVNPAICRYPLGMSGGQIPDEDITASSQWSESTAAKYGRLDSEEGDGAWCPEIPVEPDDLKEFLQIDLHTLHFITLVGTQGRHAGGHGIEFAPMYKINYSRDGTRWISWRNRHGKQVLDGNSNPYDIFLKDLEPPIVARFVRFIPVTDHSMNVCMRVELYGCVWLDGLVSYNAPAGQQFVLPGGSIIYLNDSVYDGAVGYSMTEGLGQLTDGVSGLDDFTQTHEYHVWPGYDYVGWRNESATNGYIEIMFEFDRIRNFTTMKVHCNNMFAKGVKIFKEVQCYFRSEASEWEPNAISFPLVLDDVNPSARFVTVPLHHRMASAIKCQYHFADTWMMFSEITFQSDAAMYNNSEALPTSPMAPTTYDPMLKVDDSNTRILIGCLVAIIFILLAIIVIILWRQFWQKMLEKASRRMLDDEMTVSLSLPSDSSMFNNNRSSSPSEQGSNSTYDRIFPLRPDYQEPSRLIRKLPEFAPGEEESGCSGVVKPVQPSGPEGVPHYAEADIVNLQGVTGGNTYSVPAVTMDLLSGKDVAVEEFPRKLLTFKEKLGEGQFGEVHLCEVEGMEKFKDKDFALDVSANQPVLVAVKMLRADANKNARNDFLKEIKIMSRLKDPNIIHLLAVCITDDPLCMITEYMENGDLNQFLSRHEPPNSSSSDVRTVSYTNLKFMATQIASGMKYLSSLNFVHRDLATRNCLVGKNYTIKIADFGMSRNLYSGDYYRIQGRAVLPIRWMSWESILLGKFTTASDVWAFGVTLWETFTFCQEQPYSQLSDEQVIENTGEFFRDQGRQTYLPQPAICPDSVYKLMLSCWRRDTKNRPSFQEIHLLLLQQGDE
In short: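 Cells seeded 48 h in 10% FBS, serum-starved 8 h, then given compound (5% DMSO) with 50 μg/ml chicken collagen II for 16 h at 37 °C. Lysates captured on anti-DDR2 antibody plates; phospho-DDR2 detected with HRP anti-phosphotyrosine antibody by chemiluminescence.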

SMILES	IC50 [1] [nM]	IC50 [2] [nM]
CNC(=O)c1cc(Oc2ccc(CNC(=O)Nc3cc(C)c(Cl)cc3OCCN)cc2C)ccn1 [compound 144, 4-(4-{3-[2-(2-Amino-ethoxy)-4-chloro-5-methyl-phenyl]-ureidomethyl}-2-methyl-phenoxy)-pyridine-2-carboxylic acid methylamide]	49	53
CNC(=O)c1cc(Oc2ccc(CNC(=O)Nc3cc(C)c(Cl)cc3OCCCN(C)C)cc2)ccn1 [compound 153, 4-(4-{3-[4-Chloro-2-(3-dimethylamino-propoxy)-5-methyl-phenyl]-ureidomethyl}-phenoxy)-pyridine-2-carboxylic acid methylamide]	140	55
CNC(=O)c1cc(Oc2ccc(CNC(=O)Nc3cc(C)c(Cl)cc3OCCCN(C)C)cc2C)ccn1 [compound 163, 4-(4-{3-[4-Chloro-2-(3-dimethylamino-propoxy)-5-methyl-phenyl]-ureidomethyl}-2-methyl-phenoxy)-pyridine-2-carboxylic acid methylamide]	40	16
CNC(=O)c1cc(Oc2ccc(CNC(=O)Nc3cc(Cl)c(C)cc3OCCN(C)C)cc2)ccn1 [compound 174, 4-(4-{3-[5-Chloro-2-(2-dimethylamino-ethoxy)-4-methyl-phenyl]-ureidomethyl}-phenoxy)-pyridine-2-carboxylic acid methylamide]	140	28
CNCCOc1cc(C)c(Cl)cc1NC(=O)NCc1ccc(Oc2ccnc(C(=O)NC)c2)cc1 [compound 177, 4-(4-{3-[5-Chloro-4-methyl-2-(2-methylamino-ethoxy)-phenyl]-ureidomethyl}-phenoxy)-pyridine-2-carboxylic acid methylamide]	74	27
CNC(=O)c1cc(Oc2ccc(CNC(=O)Nc3cc(Cl)c(C)cc3OC3CCNCC3)cc2)ccn1 [compound 178, 4-(4-{3-[5-Chloro-4-methyl-2-(piperidin-4-yloxy)-phenyl]-ureidomethyl}-phenoxy)-pyridine-2-carboxylic acid methylamide]	35	25
CNC(=O)c1cc(Oc2ccc(CNC(=O)Nc3cc(Cl)c(C)cc3OCCN3CCNCC3)cc2)ccn1 [compound 179, 4-(4-{3-[5-Chloro-4-methyl-2-(2-piperazin-1-yl-ethoxy)-phenyl]-ureidomethyl}-phenoxy)-pyridine-2-carboxylic acid methylamide]	160	38
CNC(=O)c1cc(Oc2ccc(CNC(=O)Nc3cc(Cl)c(C)cc3OCC3CCCN3)cc2)ccn1 (centres unmarked) [compound 182, 4-(4-{3-[5-Chloro-4-methyl-2-(pyrrolidin-2-ylmethoxy)-phenyl]-ureidomethyl}-phenoxy)-pyridine-2-carboxylic acid methylamide]	59	30
CNC(=O)c1cc(Oc2ccc(CNC(=O)Nc3cc(Cl)c(C)cc3OCCNC(C)C)cc2)ccn1 [compound 183, 4-(4-{3-[5-Chloro-2-(2-isopropylamino-ethoxy)-4-methyl-phenyl]-ureidomethyl}-phenoxy)-pyridine-2-carboxylic acid methylamide]	89	35
CNCCOc1ccc(S(=O)(=O)C(F)(F)F)cc1NC(=O)NCc1ccc(Oc2ccnc(C(=O)NC)c2)c(C)c1 [compound 189, 4-(2-Methyl-4-{3-[2-(2-methylamino-ethoxy)-5-trifluoromethanesulfonyl-phenyl]-ureidomethyl}-phenoxy)-pyridine-2-carboxylic acid methylamide]	270	115

Now from value to compound:

IC50 [1] [nM]	IC50 [2] [nM]	SMILES
91	65	CNC(=O)c1cc(Oc2ccc(CNC(=O)Nc3cc(C)c(Cl)cc3OCCN)cc2)ccn1 [compound 145, 4-(4-{3-[2-(2-Amino-ethoxy)-4-chloro-5-methyl-phenyl]-ureidomethyl}-phenoxy)-pyridine-2-carboxylic acid methylamide]
33	15	CNCCOc1ccc(C(F)(F)F)cc1NC(=O)NCc1ccc(Oc2ccnc(C(=O)NC)c2)c(C)c1 [compound 146, 4-(2-Methyl-4-{3-[2-(2-methylamino-ethoxy)-5-trifluoromethyl-phenyl]-ureidomethyl}-phenoxy)-pyridine-2-carboxylic acid methylamide]
42	10	CNC(=O)c1cc(Oc2ccc(CNC(=O)Nc3cc(C(F)(F)F)ccc3OCCN(C)C)cc2C)ccn1 [compound 150, 4-(4-{3-[2-(2-Dimethylamino-ethoxy)-5-trifluoromethyl-phenyl]-ureidomethyl}-2-methyl-phenoxy)-pyridine-2-carboxylic acid methylamide]
40	18	CNC(=O)c1cc(Oc2ccc(CNC(=O)Nc3cc(C(F)(F)F)ccc3OCCN)cc2C)ccn1 [compound 155, 4-(4-{3-[2-(2-Amino-ethoxy)-5-trifluoromethyl-phenyl]-ureidomethyl}-2-methyl-phenoxy)-pyridine-2-carboxylic acid methylamide]
43	16	CNC(=O)c1cc(Oc2ccc(CNC(=O)Nc3cc(C(F)(F)F)ccc3OCC3CCCN3)cc2)ccn1 (centres unmarked) [compound 156, 4-(4-{3-[2-(Pyrrolidin-2-ylmethoxy)-5-trifluoromethyl-phenyl]-ureidomethyl}-phenoxy)-pyridine-2-carboxylic acid methylamide]
360	95	CNC(=O)c1cc(Oc2ccc(CNC(=O)Nc3cc(C(F)(F)F)ccc3OCC(C)(C)N)cc2)ccn1 [compound 160, 4-(4-{3-[2-(2-Amino-2-methyl-propoxy)-5-trifluoromethyl-phenyl]-ureidomethyl}-phenoxy)-pyridine-2-carboxylic acid methylamide]
2800	1900	CNCCOc1ccccc1NC(=O)NCc1ccc(Oc2ccnc(C(=O)NC)c2)cc1 [compound 169, 4-(4-{3-[2-(2-Methylamino-ethoxy)-phenyl]-ureidomethyl}-phenoxy)-pyridine-2-carboxylic acid methylamide]
310	195	CNCCOc1ccc(C)cc1NC(=O)NCc1ccc(Oc2ccnc(C(=O)NC)c2)cc1 [compound 170, 4-(4-{3-[5-Methyl-2-(2-methylamino-ethoxy)-phenyl]-ureidomethyl}-phenoxy)-pyridine-2-carboxylic acid methylamide]
140	31	CNC(=O)c1cc(Oc2ccc(CNC(=O)Nc3cc(C(F)(F)F)ccc3OCCNC(C)C)cc2)ccn1 [compound 172, 4-(4-{3-[2-(2-Isopropylamino-ethoxy)-5-trifluoromethyl-phenyl]-ureidomethyl}-phenoxy)-pyridine-2-carboxylic acid methylamide]
460	175	CNC(=O)c1cc(Oc2ccc(CNC(=O)Nc3cc(Cl)c(C)cc3OCC(C)(C)N)cc2)ccn1 [compound 185, 4-(4-{3-[2-(2-Amino-2-methyl-propoxy)-5-chloro-4-methyl-phenyl]-ureidomethyl}-phenoxy)-pyridine-2-carboxylic acid methylamide]
120	40	CNC(=O)c1cc(Oc2ccc(CNC(=O)Nc3cc(C(F)(F)F)ccc3OCC(N)=O)cc2)ccn1 [compound 190, 4-{4-[3-(2-Carbamoylmethoxy-5-trifluoromethyl-phenyl)-ureidomethyl]-phenoxy}-pyridine-2-carboxylic acid methylamide]
590	106	CNC(=O)c1cc(Oc2ccc(CNC(=O)Nc3cc(C(F)(F)F)c(Cl)cc3OCCCN)cc2)ccn1 [compound 191, 4-(4-{3-[2-(3-Amino-propoxy)-4-chloro-5-trifluoromethyl-phenyl]-ureidomethyl}-phenoxy)-pyridine-2-carboxylic acid methylamide]
